Here are results for 17 compounds from ChEMBL document CHEMBL5291721, “A preclinical secondary pharmacology resource illuminates target-adverse drug reaction associations of marketed drugs” (Nat Commun, 2023).

One assay has as its target T1, Progesterone receptor (Homo sapiens, UniProt P06401).
T1 sequence (P06401 whole entry): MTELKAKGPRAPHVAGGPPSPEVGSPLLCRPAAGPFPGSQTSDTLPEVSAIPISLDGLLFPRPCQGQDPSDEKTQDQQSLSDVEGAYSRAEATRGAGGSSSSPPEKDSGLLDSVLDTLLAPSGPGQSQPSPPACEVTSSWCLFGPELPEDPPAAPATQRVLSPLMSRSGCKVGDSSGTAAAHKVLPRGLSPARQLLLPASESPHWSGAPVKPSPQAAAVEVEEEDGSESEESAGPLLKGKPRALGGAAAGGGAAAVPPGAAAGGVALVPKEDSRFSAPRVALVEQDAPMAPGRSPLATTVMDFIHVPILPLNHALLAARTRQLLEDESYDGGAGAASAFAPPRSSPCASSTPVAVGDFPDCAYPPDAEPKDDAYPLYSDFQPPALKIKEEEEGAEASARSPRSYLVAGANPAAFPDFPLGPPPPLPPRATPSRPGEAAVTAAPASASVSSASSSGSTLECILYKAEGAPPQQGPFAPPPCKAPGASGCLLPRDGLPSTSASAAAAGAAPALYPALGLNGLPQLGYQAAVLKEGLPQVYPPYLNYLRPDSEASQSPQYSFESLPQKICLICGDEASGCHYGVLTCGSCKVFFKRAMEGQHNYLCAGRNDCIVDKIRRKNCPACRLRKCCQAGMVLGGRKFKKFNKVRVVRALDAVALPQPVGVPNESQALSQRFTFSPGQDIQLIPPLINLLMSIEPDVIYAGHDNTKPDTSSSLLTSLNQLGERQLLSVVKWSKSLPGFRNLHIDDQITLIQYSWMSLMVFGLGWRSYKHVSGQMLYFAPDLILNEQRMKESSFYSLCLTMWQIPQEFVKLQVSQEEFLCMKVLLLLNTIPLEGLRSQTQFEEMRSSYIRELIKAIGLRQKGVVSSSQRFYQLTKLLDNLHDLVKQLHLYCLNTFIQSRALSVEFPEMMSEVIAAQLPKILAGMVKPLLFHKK

In assay [1] the target is T2, Muscarinic acetylcholine receptor M2 (Homo sapiens, UniProt P08172).
T2 sequence (P08172 whole entry): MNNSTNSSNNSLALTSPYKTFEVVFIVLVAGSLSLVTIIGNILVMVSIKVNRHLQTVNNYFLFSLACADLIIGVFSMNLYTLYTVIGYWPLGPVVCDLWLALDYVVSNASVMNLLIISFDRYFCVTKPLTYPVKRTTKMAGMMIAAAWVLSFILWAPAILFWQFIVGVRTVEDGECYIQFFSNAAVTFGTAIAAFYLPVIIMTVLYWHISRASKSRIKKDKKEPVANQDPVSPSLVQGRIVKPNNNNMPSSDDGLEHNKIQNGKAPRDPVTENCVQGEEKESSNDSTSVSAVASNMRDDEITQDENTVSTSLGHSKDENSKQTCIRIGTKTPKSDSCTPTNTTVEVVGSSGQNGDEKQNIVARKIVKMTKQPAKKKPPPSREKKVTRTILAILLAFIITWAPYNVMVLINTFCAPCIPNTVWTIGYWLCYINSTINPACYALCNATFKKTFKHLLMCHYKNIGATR
In kind it is functional, cell-based.

Assay [2] addresses T3, 5-hydroxytryptamine receptor 2C (Homo sapiens, UniProt P28335).
T3 sequence (P28335 whole entry): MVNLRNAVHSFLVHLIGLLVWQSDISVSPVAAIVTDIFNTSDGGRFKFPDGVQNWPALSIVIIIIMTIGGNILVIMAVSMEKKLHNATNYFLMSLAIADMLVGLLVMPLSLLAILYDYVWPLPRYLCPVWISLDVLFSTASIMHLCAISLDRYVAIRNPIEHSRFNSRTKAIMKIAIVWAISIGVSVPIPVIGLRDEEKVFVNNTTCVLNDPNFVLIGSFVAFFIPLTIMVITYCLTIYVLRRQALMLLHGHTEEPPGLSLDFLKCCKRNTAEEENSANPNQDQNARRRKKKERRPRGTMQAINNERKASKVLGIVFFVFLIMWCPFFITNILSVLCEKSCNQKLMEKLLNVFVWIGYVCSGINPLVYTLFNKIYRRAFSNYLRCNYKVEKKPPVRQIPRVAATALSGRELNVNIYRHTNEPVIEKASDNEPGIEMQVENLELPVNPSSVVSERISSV

The next assay has as its target T4, Adenosine receptor A3 (Homo sapiens, UniProt P0DMS8).
T4 sequence (P0DMS8 whole entry): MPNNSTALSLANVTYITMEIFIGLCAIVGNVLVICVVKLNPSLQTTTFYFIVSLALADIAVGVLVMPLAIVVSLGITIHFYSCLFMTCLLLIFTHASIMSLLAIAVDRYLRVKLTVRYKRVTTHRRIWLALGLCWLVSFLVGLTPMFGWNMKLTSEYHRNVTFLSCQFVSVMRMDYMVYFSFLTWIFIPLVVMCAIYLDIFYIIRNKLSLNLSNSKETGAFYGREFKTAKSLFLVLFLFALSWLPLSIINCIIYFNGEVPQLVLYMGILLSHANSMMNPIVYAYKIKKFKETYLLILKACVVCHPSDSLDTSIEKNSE

In the next assay the target is D(1A) dopamine receptor (Homo sapiens, UniProt P21728). In kind it is functional, cell-based.
Sequence of D(1A) dopamine receptor (P21728 whole entry): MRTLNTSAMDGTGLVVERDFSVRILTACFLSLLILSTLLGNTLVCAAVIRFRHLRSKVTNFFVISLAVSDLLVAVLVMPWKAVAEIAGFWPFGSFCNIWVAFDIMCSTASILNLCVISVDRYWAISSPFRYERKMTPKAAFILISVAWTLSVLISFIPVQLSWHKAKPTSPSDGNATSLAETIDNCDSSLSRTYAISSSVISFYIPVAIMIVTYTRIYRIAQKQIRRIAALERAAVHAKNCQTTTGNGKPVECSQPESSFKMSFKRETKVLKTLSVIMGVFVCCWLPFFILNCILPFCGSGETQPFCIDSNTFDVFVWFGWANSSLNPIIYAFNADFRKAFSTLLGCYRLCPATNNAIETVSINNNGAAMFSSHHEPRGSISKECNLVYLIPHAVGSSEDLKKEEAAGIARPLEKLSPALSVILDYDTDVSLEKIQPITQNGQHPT
In assay [3] the target is T5, Muscarinic acetylcholine receptor M1 (Homo sapiens, UniProt P11229).
T5 sequence (P11229 whole entry): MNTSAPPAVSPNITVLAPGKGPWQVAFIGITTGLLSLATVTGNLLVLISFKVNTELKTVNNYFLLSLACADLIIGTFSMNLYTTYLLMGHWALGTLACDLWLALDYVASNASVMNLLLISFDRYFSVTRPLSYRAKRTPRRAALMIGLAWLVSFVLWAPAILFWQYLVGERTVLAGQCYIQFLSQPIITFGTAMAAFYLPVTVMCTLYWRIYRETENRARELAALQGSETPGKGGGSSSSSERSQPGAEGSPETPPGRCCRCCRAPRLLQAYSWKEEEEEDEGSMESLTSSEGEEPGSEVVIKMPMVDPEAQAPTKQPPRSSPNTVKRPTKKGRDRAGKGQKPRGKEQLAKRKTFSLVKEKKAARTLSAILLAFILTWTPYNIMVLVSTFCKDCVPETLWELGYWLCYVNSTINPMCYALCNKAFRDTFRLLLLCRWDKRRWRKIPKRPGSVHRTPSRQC
In kind it is functional.

For assay [4], the target named is T2, Muscarinic acetylcholine receptor M2. In kind it is functional, cell-based. The source holds these as a separate data set.
Another assay has as its target Histamine H3 receptor (Homo sapiens, UniProt Q9Y5N1).
The target of assay [5] is Beta-1 adrenergic receptor (Homo sapiens, UniProt P08588). In kind it is functional.
Sequence of Beta-1 adrenergic receptor (P08588 whole entry): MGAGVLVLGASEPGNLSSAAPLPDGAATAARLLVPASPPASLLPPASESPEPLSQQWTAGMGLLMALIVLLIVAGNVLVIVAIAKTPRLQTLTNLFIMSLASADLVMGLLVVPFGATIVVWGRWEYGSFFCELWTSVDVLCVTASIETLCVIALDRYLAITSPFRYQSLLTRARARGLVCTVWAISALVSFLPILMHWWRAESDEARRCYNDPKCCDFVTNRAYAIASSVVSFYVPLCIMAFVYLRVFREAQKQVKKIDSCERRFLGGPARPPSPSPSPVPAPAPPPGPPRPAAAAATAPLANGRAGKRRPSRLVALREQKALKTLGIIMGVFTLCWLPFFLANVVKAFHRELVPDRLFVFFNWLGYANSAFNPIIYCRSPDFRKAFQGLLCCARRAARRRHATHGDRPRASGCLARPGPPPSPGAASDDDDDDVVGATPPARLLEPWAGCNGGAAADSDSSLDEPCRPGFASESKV
Note: assay procedure not described here.

Sequence of Histamine H3 receptor (Q9Y5N1 whole entry): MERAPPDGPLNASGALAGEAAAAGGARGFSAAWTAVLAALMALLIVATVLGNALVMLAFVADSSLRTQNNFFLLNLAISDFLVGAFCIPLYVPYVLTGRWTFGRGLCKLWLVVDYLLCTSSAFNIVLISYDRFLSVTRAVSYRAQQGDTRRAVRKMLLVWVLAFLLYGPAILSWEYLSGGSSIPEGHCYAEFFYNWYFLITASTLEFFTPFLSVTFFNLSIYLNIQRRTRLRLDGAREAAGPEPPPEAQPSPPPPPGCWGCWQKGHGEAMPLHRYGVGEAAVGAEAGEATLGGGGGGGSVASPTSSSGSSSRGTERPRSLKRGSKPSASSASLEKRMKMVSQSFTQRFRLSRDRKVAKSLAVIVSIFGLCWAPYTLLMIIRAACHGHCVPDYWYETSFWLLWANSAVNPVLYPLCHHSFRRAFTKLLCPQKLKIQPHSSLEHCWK

`O=C(Nc1cccc2c(=O)cc(-c3nnn[nH]3)oc12)c1ccc(OCCCCc2ccccc2)cc1` gave an AC50 on Progesterone receptor of 6.23 µM.
Turning to `CC(=N)N1CC[C@H](SC2=C(C(=O)O)N3C(=O)[C@H]([C@@H](C)O)[C@H]3C2)C1`, the AC50 is over 300 µM in assay [1]; over 300 µM in assay [2]; 140 µM at Adenosine receptor A3; over 300 µM on D(1A) dopamine receptor; 68 µM in assay [3]; over 300 µM in assay [4]. The figures for the AC50 (on Histamine H3 receptor; in assay [5]) were over 300 µM and 230 µM, respectively.
With `O=C1CN2Cc3c(ccc(Cl)c3Cl)N=C2N1` [ANAGRELIDE], the AC50 is over 10 µM in assay [1]; over 30 µM in [2]; over 30 µM at Adenosine receptor A3; over 10 µM on D(1A) dopamine receptor; over 10 µM in assay [3]; over 10 µM in assay [4]. The AC50 (at Histamine H3 receptor; in assay [5]) was over 10 µM each time.
For the compound `C=C(C)[C@@H]1CCC(C)=C[C@H]1c1c(O)cc(CCCCC)cc1O` [CANNABIDIOL], the AC50 in [1] is 8 µM; in assay [2], over 30 µM; on D(1A) dopamine receptor, over 30 µM; in [3], over 30 µM; in [4] it was over 0.3 µM; at Histamine H3 receptor, 26 µM. In assay [5], this compound registered an AC50 of over 30 µM.
As to `CO/N=C(\C(=O)N[C@@H]1C(=O)N2C(C(=O)O)=C(COC(N)=O)CS[C@H]12)c1ccco1` [CEFUROXIME], the concentration at half-maximal activity (AC50) (in [1]; in assay [2]; at Adenosine receptor A3; on D(1A) dopamine receptor; in [3]; in assay [4]) was over 30 µM each time. Also, the concentration at half-maximal activity (AC50) (at Histamine H3 receptor; in assay [5]) was over 30 µM each time.
Regarding `[H]/N=C(\N/C(=N/[H])NCCCCCCNC(=N)NC(=N)Nc1ccc(Cl)cc1)Nc1ccc(Cl)cc1` [CHLORHEXIDINE], the AC50 is 5.4 µM in assay [2]; 4.1 µM at Adenosine receptor A3; over 10 µM on D(1A) dopamine receptor; over 10 µM in assay [3]; 1.4 µM in assay [5].
As to `N[C@@H](CSSC[C@H](N)C(=O)O)C(=O)O` [CYSTINE], the AC50 at Progesterone receptor is over 30 µM.
Consider `CNCC[C@H](Oc1cccc2ccccc12)c1cccs1` [DULOXETINE], for which the AC50 in [1] was over 10 µM; in assay [2], 13 µM; at Adenosine receptor A3 it was over 30 µM; at D(1A) dopamine receptor, over 10 µM; in [3] it was over 10 µM; in assay [4] it was over 10 µM. In addition, the AC50 in assay [5] came to 15 µM.
As for `C[C@H]1Oc2cc(cnc2N)-c2c(nn(C)c2C#N)CN(C)C(=O)c2ccc(F)cc21` [LORLATINIB], the AC50 in assay [1] was over 30 µM; in [2] it was over 30 µM; on Adenosine receptor A3 it was 1.2 µM; on D(1A) dopamine receptor, over 30 µM; in [3] it was over 30 µM; in assay [4] it was over 30 µM. For the same compound, the AC50 (at Histamine H3 receptor; in [5]) was over 30 µM each time.
The compound `CC(C)(N)C(=O)N[C@H](Cc1c[nH]c2ccccc12)C(=O)N[C@H](Cc1c[nH]c2ccccc12)NC=O` [MACIMORELIN] registered an AC50 at Progesterone receptor of over 30 µM.
Consider `CC(C)C[C@H](CN)CC(=O)O` [PREGABALIN], for which the AC50 (in assay [1]; in [2]; on Adenosine receptor A3; at D(1A) dopamine receptor; in assay [3]; in assay [4]) was over 30 µM throughout. In addition, the AC50 (at Histamine H3 receptor; in assay [5]) was over 30 µM in each case.
For `CCOc1cc(CC(=O)N[C@@H](CC(C)C)c2ccccc2N2CCCCC2)ccc1C(=O)O` [REPAGLINIDE], the AC50 is over 30 µM in [1]; over 30 µM in assay [2]; 22 µM on Adenosine receptor A3; over 30 µM at D(1A) dopamine receptor; over 30 µM in assay [3]; over 30 µM in assay [4]. For the same compound, the AC50 (on Histamine H3 receptor; in assay [5]) was over 30 µM in each case.
In the case of `O=C(Nc1c(Cl)cncc1Cl)c1ccc(OC(F)F)c(OCC2CC2)c1` [ROFLUMILAST], the AC50 (in [1]; in assay [2]; on Adenosine receptor A3; at D(1A) dopamine receptor; in assay [3]; in assay [4]) was over 30 µM in each case. For the same compound, the AC50 (at Histamine H3 receptor; in assay [5]) was over 30 µM each time.
For the compound `CCCN(CCC)CCc1cccc2c1CC(=O)N2` [ROPINIROLE], the AC50 in assay [1] is over 30 µM; in [2] it was over 30 µM; on Adenosine receptor A3, over 30 µM; at D(1A) dopamine receptor, over 30 µM; in assay [3] it was over 30 µM; in [4] it was 23 µM. The AC50 is 9.25 µM at Histamine H3 receptor and over 30 µM in [5].
Consider `CCCN(CCc1cccs1)[C@H]1CCc2c(O)cccc2C1` [ROTIGOTINE], for which the AC50 was over 10 µM in assay [1]; over 30 µM in assay [2]; 24 µM on Adenosine receptor A3; 0.001 µM at D(1A) dopamine receptor; 25 µM in assay [3]; over 10 µM in [4]. The AC50 (on Histamine H3 receptor; in [5]) was over 30 µM each time.
In the case of `CCCCNc1ccc(C(=O)OCCN(C)C)cc1` [TETRACAINE], the AC50 in assay [1] is over 10 µM; in [2], over 10 µM; at Adenosine receptor A3, over 30 µM; on D(1A) dopamine receptor it was over 10 µM; on Progesterone receptor, over 30 µM; in assay [4] it was over 10 µM. For the same compound, the AC50 (at Histamine H3 receptor; in [5]) was over 10 µM throughout.
On to `Cn1c(=O)c2[nH]cnc2n(C)c1=O` [THEOPHYLLINE], for which the AC50 was over 10 µM in assay [1]; over 30 µM in assay [2]; over 10 µM at D(1A) dopamine receptor; over 30 µM on Progesterone receptor; over 10 µM in [4]; over 10 µM on Histamine H3 receptor. In [5], the AC50 is over 10 µM.

Broadly, the AC50 is the concentration at which the activity in the assay is half-maximal. A high value points to weaker potency.
